The results in this text go back to patent publication US20240424111A1, “Degrader Compounds and Uses Thereof” (CALICO LIFE SCIENCES LLC, priority 2021, published 2024).

Assay [1] has as its target T1, PTPN2 (Homo sapiens, UniProt P17706).
T1 construct: expressed in transfected cells; host or cells: 293T.109 (HiBiT-PTPN2), derived from 293T WT (ATCC)
T1 sequence (P17706 1-415): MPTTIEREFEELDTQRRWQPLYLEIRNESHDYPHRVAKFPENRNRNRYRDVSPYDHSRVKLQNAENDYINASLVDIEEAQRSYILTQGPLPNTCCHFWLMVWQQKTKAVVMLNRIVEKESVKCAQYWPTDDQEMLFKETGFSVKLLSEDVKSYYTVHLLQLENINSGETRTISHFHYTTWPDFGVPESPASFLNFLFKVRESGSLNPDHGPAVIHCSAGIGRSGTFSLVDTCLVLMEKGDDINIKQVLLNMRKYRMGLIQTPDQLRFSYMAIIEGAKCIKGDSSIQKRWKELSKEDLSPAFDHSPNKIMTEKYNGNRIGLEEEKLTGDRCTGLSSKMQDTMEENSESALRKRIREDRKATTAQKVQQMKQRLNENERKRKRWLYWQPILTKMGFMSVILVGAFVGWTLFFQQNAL
The assay can be described thus: HiBiT PTPN2 degradation in 293T.109 (HiBiT-PTPN2) cells, 24 hours. The format is cell-based. Particulars: 293T.109 cells. The text has this: Dulbecco's modified Eagle medium (DMEM) without phenol red and fetal bovine serum (FBS) were purchased from Gibco (Grand Island, NY, USA). Nano-Glo® HiBiT Lytic Assay System was purchased from Promega (Medison, WI, USA). 293T. 109 (HiBiT-PTPN2) cell line was generated by ectopically expressing PTPN2 with N-terminal HiBiT fusion tag in 293T WT cell line purchased from ATCC (Manassas, VA, USA). Cell culture flasks and 384-well microplates were acquired from VWR (Radnor, PA, USA).
PTPN2 Degradation Analysis
(§1) PTPN2 degradation was determined based on quantification of luminescent signal using Nano-Glo® HiBiT Lytic Assay kit. Test compounds were added to the 384-well plate from a top concentration of 10 μM with 11 points, half log titration in duplicates. 293T. 109 cells were added into 384-well plates at a cell density of 5000 cells per well. The plates were kept at 37° C. with 5% CO2 for 24 hours. The cells treated in the absence of the test compound were the negative control and the cells without Nano-Glo® HiBiT Lytic reagent were the positive control. After 24-hour incubation, Nano-Glo® HiBiT Lytic Assay reagents were added to the cells. Luminescence was acquired on EnVision™ Multilabel Reader (PerkinElmer, Santa Clara, CA, USA).
(HiBiT is a short tag that completes a luciferase, so light tracks the accessible tagged protein.)

Assay [2] concerns the target T2, PTPN2 (Mus musculus, UniProt Q06180).
T2 construct: HiBiT; host or cells: B16F10.4
T2 sequence (Q06180 1-406): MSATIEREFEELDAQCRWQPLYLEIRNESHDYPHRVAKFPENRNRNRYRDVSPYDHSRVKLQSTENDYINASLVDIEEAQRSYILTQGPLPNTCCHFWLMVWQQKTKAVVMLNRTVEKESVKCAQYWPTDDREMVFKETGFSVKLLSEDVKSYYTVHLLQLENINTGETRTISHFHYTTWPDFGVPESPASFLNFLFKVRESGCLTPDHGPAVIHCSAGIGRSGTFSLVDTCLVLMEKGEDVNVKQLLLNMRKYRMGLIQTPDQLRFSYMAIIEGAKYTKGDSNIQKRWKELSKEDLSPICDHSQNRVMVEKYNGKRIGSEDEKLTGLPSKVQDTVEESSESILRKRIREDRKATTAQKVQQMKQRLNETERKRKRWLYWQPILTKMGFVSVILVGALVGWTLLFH
Put plainly: HiBiT PTPN2 degradation in B16F10.4 cells, 24 hours. In kind it is cell-based. How it is done: as §1

For `CCn1c(=O)n(C2CCC(=O)NC2=O)c2ccc(-c3ccc(CC(=O)Nc4ccc5c(F)c(N6CC(=O)NS6(=O)=O)c(O)cc5c4)cc3)cc21` (stereo not shown) [Degrader 49], the 50% degradation concentration (DC50) on PTPN2 [1] and at PTPN2 [2] was 50 to 150 nM in each case.
`Cc1nn(CC(=O)Nc2ccc3c(F)c(N4CC(=O)NS4(=O)=O)c(O)cc3c2)c(C)c1-c1ccc2c(c1)n(C)c(=O)n2C1CCC(=O)NC1=O` (stereo not shown) [Degrader 70]: the 50% degradation concentration (DC50) at PTPN2 [1] and at PTPN2 [2] was below 50 nM throughout.
Consider `C[C@H]1CN(c2ccc3c(c2)n(C)c(=O)n3C2CCC(=O)NC2=O)CC[C@@H]1CC(=O)Nc1ccc2c(F)c(N3CC(=O)NS3(=O)=O)c(O)cc2c1` (stereo partly shown) [Degrader 133], for which the DC50 on PTPN2 [1] and at PTPN2 [2] was 50 to 150 nM each time.
As to `CC(C)n1nc(C2CCC(=O)NC2=O)c2ccc(C3CCN(CC(=O)N4CC(Oc5ccc6cc(O)c(N7CC(=O)NS7(=O)=O)c(F)c6c5)C4)CC3(F)F)cc21` (stereo not shown) [Degrader 13], the DC50 on PTPN2 [1] and on PTPN2 [2] was 50 to 150 nM each time.
As for `Cn1c(=O)n(C2CCC(=O)NC2=O)c2ccc(N3CCC(O)(CC(=O)N4CC[C@H](c5ccc6cc(O)c(N7CC(=O)NS7(=O)=O)c(F)c6c5)C4)CC3)cc21` (stereo partly shown) [Degrader 115], the DC50 on PTPN2 [1] and on PTPN2 [2] was 150 to 500 nM throughout.
Take `CCn1c(=O)n(C2CCC(=O)NC2=O)c2ccc(C3CCN([C@@H](CO)C(=O)Nc4ccc5c(F)c(N6CC(=O)NS6(=O)=O)c(O)cc5c4)CC3)cc21` (stereo partly shown) [Degrader 64]: the half-maximal degradation concentration (DC50) was below 50 nM on PTPN2 [1] and 50 to 150 nM on PTPN2 [2].
Taken in the same sequence, the figures for `C[C@H](C(=O)Nc1ccc2c(F)c(N3CC(=O)NS3(=O)=O)c(O)cc2c1)C1CCN(c2ccc3c(c2)n(C)c(=O)n3C2CCC(=O)NC2=O)CC1` (stereo partly shown) [Degrader 105] were 150 to 500 nM and 150 to 500 nM.
Consider `Cn1c(=O)n(C2CCC(=O)NC2=O)c2ccc(Cc3ccc(CC(=O)Nc4ccc5c(F)c(N6CC(=O)NS6(=O)=O)c(O)cc5c4)cc3)cc21` (stereo not shown) [Degrader 136], for which the DC50 at PTPN2 [1] was below 50 nM; on PTPN2 [2] it was 50 to 150 nM.
The like results for `Cn1c(=O)n(C2CCC(=O)NC2=O)c2ccc([C@@H]3CCN(CC(=O)Nc4ccc5c(F)c(N6CC(=O)NS6(=O)=O)c(O)cc5c4)C[C@H]3F)cc21` (stereo partly shown) [Degrader 38] were, in that order, below 50 nM and below 50 nM.
Take `O=C1CCC(n2c(=O)n(C3COC3)c3cc(C4CCN(CC(=O)Nc5ccc6c(F)c(N7CC(=O)NS7(=O)=O)c(O)cc6c5)CC4)ccc32)C(=O)N1` (stereo not shown) [Degrader 9]: the half-maximal degradation concentration (DC50) at PTPN2 [1] and on PTPN2 [2] was 150 to 500 nM each time.
For `Cn1c(=O)n(C2CCC(=O)NC2=O)c2ccc([C@H]3CCN(CC(=O)Nc4ccc5c(F)c(N6CC(=O)NS6(=O)=O)c(O)cc5c4)C3)cc21` (single isomer, unassigned) [Degrader 123], the DC50 at PTPN2 [1] was 50 to 150 nM; at PTPN2 [2], 150 to 500 nM.
For `Cn1c(=O)n(C2CCC(=O)NC2=O)c2ccc3c(c21)CCCN3CCCCC(=O)Nc1ccc2c(F)c(N3CC(=O)NS3(=O)=O)c(O)cc2c1` (stereo not shown) [Degrader 146], the values for the DC50 at PTPN2 [1] and at PTPN2 [2] were below 50 nM and 50 to 150 nM, respectively.
For the molecule `Cn1c(=O)n([C@@H]2CCC(=O)NC2=O)c2ccc(-c3ccc(CC(=O)Nc4ccc5c(F)c(N6CC(=O)NS6(=O)=O)c(O)cc5c4)cc3)cc21` [Degrader 26], the DC50 on PTPN2 [1] is 50 to 150 nM; on PTPN2 [2], below 50 nM.
The like results for `Cn1nc(C2CCC(=O)NC2=O)c2ccc(C3CCN(C4CC(C(=O)Nc5ccc6c(F)c(N7CC(=O)NS7(=O)=O)c(O)cc6c5)C4)CC3)cc21` (stereo not shown) [Degrader 30] were, in that order, below 50 nM and 150 to 500 nM.
The like results for `Cn1cc(N2CCC(=O)NC2=O)c2cc(F)c(-c3ccc(CC(=O)Nc4ccc5c(F)c(N6CC(=O)NS6(=O)=O)c(O)cc5c4)cc3)cc21` [Degrader 125] were, in that order, 150 to 500 nM and 150 to 500 nM.
As to `Cn1c(=O)n(C2CCC(=O)NC2=O)c2cnc(-c3ccc(CC(=O)Nc4ccc5c(F)c(N6CC(=O)NS6(=O)=O)c(O)cc5c4)cc3)cc21` (stereo not shown) [Degrader 122], the 50% degradation concentration (DC50) on PTPN2 [1] was at least 500 nM; at PTPN2 [2] it was 150 to 500 nM.
`CCn1c(=O)n(C2CCC(=O)NC2=O)c2ccc([C@@H]3CCN(CC(=O)Nc4ccc5c(F)c(N6CC(=O)NS6(=O)=O)c(O)cc5c4)C[C@H]3F)cc21` (stereo partly shown) [Degrader 131]: the figures for the DC50 on PTPN2 [1] and at PTPN2 [2] were 150 to 500 nM and at least 500 nM, respectively.
On to `Cn1c(=O)n(C2CCC(=O)NC2=O)c2ccc(-n3ccc(CC(=O)Nc4ccc5c(F)c(N6CC(=O)NS6(=O)=O)c(O)cc5c4)n3)cc21` (stereo not shown) [Degrader 88], for which the half-maximal degradation concentration (DC50) is 150 to 500 nM on PTPN2 [1] and at least 500 nM at PTPN2 [2].
`Cn1c(=O)n(C2CCC(=O)NC2=O)c2ccc(N3[C@@H]4CC[C@H]3C[C@H](CC(=O)Nc3ccc5c(F)c(N6CC(=O)NS6(=O)=O)c(O)cc5c3)C4)cc21` (stereo partly shown) [Degrader 110]: the 50% degradation concentration (DC50) on PTPN2 [1] lay within 50 to 150 nM; at PTPN2 [2], 150 to 500 nM.
The like results for `Cc1cc(C(C)C(=O)Nc2ccc3c(F)c(N4CC(=O)NS4(=O)=O)c(O)cc3c2)ccc1Nc1ccc2c(c1)n(C)c(=O)n2C1CCC(=O)NC1=O` (stereo not shown) [Degrader 94] were, in that order, 150 to 500 nM and 50 to 150 nM.
The like results for `Cn1c(=O)n(C2CCC(=O)NC2=O)c2ccc(-n3ccc4cc(CC(=O)Nc5ccc6c(F)c(N7CC(=O)NS7(=O)=O)c(O)cc6c5)ccc43)cc21` (stereo not shown) [Degrader 120] were, in that order, 150 to 500 nM and 50 to 150 nM.
In the case of `Cn1c(=O)n(C2CCC(=O)NC2=O)c2ccc(C3CCN(CC(=O)Nc4ccc5c(F)c(N6CC(=O)NS6(=O)=O)c(O)cc5c4)CC3F)cc21` (stereo not shown) [Degrader 36], the half-maximal degradation concentration (DC50) on PTPN2 [1] and on PTPN2 [2] was below 50 nM in each case.
On to `O=C1CCC(c2ccc(C3CCN(CC(=O)Nc4ccc5c(F)c(N6CC(=O)NS6(=O)=O)c(O)cc5c4)CC3)cc2)C(=O)N1` (stereo not shown) [Degrader 128], for which the DC50 on PTPN2 [1] was 150 to 500 nM; on PTPN2 [2], at least 500 nM.
Regarding `CCn1c(=O)n(C2CCC(=O)NC2=O)c2ccc([C@H]3CCN(CC(=O)Nc4ccc5c(F)c(N6CC(=O)NS6(=O)=O)c(O)cc5c4)C[C@@H]3F)cc21` (single isomer, unassigned) [Degrader 130], the DC50 at PTPN2 [1] and on PTPN2 [2] was 150 to 500 nM each time.
`Cn1nc(C2CCC(=O)NC2=O)c2ccc(Nc3ccc(CC(=O)Nc4ccc5c(F)c(N6CC(=O)NS6(=O)=O)c(O)cc5c4)cc3)cc21` (stereo not shown) [Degrader 48]: the 50% degradation concentration (DC50) at PTPN2 [1] and on PTPN2 [2] was 50 to 150 nM each time.
Regarding `Cn1c(=O)n(C2CCC(=O)NC2=O)c2ccc(-c3ccc([C@@H](CO)C(=O)Nc4ccc5c(F)c(N6CC(=O)NS6(=O)=O)c(O)cc5c4)cc3)cc21` (stereo partly shown) [Degrader 138], the DC50 at PTPN2 [1] and on PTPN2 [2] was below 50 nM each time.
As for `C[C@@H]1CN(c2ccc3c(c2)n(C)c(=O)n3C2CCC(=O)NC2=O)CC[C@H]1CC(=O)Nc1ccc2c(F)c(N3CC(=O)NS3(=O)=O)c(O)cc2c1` (stereo partly shown) [Degrader 132], the DC50 on PTPN2 [1] and at PTPN2 [2] was 50 to 150 nM in each case.
In the case of `Cn1c(=O)n(C2CCC(=O)NC2=O)c2ccc(C3CC4CCC(C3)N4CC(=O)Nc3ccc4c(F)c(N5CC(=O)NS5(=O)=O)c(O)cc4c3)cc21` (stereo not shown) [Degrader 51], the DC50 on PTPN2 [1] fell in the range of 50 to 150 nM; on PTPN2 [2], 150 to 500 nM.
With `Cn1c(=O)n(C2CCC(=O)NC2=O)c2ccc(N3CCC(CC(=O)Nc4ccc5c(F)c(N6CC(=O)NS6(=O)=O)c(O)cc5c4)CC3)c(F)c21` (stereo not shown) [Degrader 46], the half-maximal degradation concentration (DC50) was 50 to 150 nM at PTPN2 [1] and 150 to 500 nM at PTPN2 [2].
As to `C[C@H]1CC(c2ccc3c(c2)n(C)c(=O)n3C2CCC(=O)NC2=O)CCN1CC(=O)Nc1ccc2c(F)c(N3CC(=O)NS3(=O)=O)c(O)cc2c1` (stereo partly shown) [Degrader 121], the DC50 is below 50 nM at PTPN2 [1] and 50 to 150 nM at PTPN2 [2].
For `C[C@H](C(=O)Nc1ccc2c(F)c(N3CC(=O)NS3(=O)=O)c(O)cc2c1)N1CCC(c2ccc3c(c2)n(C)c(=O)n3C2CCC(=O)NC2=O)CC1` (stereo partly shown) [Degrader 103], the results for the DC50 on PTPN2 [1] and at PTPN2 [2] were below 50 nM and at least 500 nM, respectively.
Taken in the same sequence, the figures for `Cn1c(=O)n(C2CCC(=O)NC2=O)c2ccc(-c3ccc(CC(=O)Nc4ccc5c(F)c(N6CC(=O)NS6(=O)=O)c(O)cc5c4)cc3)c(F)c21` (stereo not shown) [Degrader 40] were 150 to 500 nM and 150 to 500 nM.

The term DC50 denotes the concentration giving 50% degradation. Low values mean degradation at low concentration, high ones degradation only at high concentration.
